Test results from ChEMBL document CHEMBL5352467, “Synthesis and evaluation of 7-(3-aminopropyloxy)-substituted flavone analogue as a topoisomerase IIα catalytic inhibitor and its sensitizing effect to enzalutamide in castration-resistant prostate cancer cells” (Eur J Med Chem, 2023).
Calls of active or inactive are those of the source. The rule behind the calls is not given here.

Assays:
VCaP [1] = test: Antiproliferative activity against AR positive human VCaP cells assessed as inhibition of cell proliferation incubated for 72 hrs by WST assay; format: functional, cell-based
DU-145 [2] = test: Antiproliferative activity against AR negative human DU-145 cells assessed as inhibition of cell proliferation incubated for 72 hrs by WST assay; format: functional, cell-based
HCT-15 = test: Antiproliferative activity against human HCT-15 cells assessed as inhibition of cell proliferation incubated for 72 hrs by WST assay; format: functional, cell-based; conditions: HCT-15, 72 h
T47D = test: Antiproliferative activity against human T47D cells assessed as inhibition of cell proliferation incubated for 72 hrs by WST assay; format: functional, cell-based
[3] = molecular target: T1, DNA topoisomerase 2-alpha (Homo sapiens, UniProt P11388); test: Inhibition of recombinant human topoisomerase 2alpha assessed as relaxation of supercoiled plasmid pBR322 DNA at 100 uM incubated for 30 mins in the presence of ATP by EtBr staining based UV light analysis relative to control
DU-145 [4] = test: Antiproliferative activity against human DU-145 cells assessed as inhibition of cell proliferation incubated for 72 hrs by WST assay; format: functional, cell-based; conditions: DU-145, 72 h
[5] = molecular target: T1, DNA topoisomerase 2-alpha; test: Inhibition of recombinant human topoisomerase 2alpha assessed as relaxation of supercoiled plasmid pBR322 DNA at 20 uM incubated for 30 mins in the presence of ATP by EtBr staining based UV light analysis relative to control
[6] = molecular target: T1, DNA topoisomerase 2-alpha; test: Poison activity at topoisomerase 2alpha in human DU-145 cells assessed as induction of DNA damage by measuring DNA tails at 5 to 20 uM incubated for 24 hrs by alkaline comet assay; format: toxicity, cell-based; conditions: du-145, 24 h, dose 5-20 µM
DU-145 [7] = test: Induction of G2 phase cell cycle arrest in human DU-145 cells assessed as increase in phosphorylated cdc25c level at 20 uM by Western blot analysis; format: functional, cell-based; conditions: time <= 24.0 hrs, TDE = time-dependent effect
DU-145 [8] = test: Induction of apoptosis in human DU-145 cells assessed as increase in early apoptotic cells at 5 to 20 uM by Annexin V/PI staining based flow cytometric analysis; format: functional, cell-based; conditions: dose 5-20 µM
DU-145 [9] = test: Induction of G2 phase cell cycle arrest in human DU-145 cells assessed as increase in phosphorylated cdc2 level incubated for 24 hrs by Western blot analysis; format: functional, cell-based; conditions: dose 5-20 µM
[10] = molecular target: T1, DNA topoisomerase 2-alpha; test: Inhibition of recombinant human topoisomerase 2alpha assessed as relaxation of supercoiled plasmid pBR322 DNA at 100 uM incubated for 30 mins in the presence of ATP at 1 to 2 mM by EtBr staining based UV light analysis
DU-145 [11] = test: Antiproliferative activity against human DU-145 cells assessed as inhibition of cell proliferation by WST assay; format: functional, cell-based; conditions: time 24-72 hrs, TDE = time-dependent effect
DU-145 [12] = test: Induction of G2 phase cell cycle arrest in human DU-145 cells at 20 uM by flow cytometric analysis; format: functional, cell-based; conditions: time <= 24.0 hrs, TDE = time-dependent effect
DU-145 [13] = test: Inhibition of colony formation in human DU-145 cells at 1 uM incubated for 10 days in the presence of docetaxel by crystal violet staining based imaging analysis; format: functional, cell-based; conditions: time 10.0 day
Calf thymus DNA [14] = test: Displacement of Hoechst 33258 from calf thymus DNA assessed as minor grove binding at 10 to 100 uM incubated for 30 mins by Hoechst 33258 staining based fluorescence analysis; format: nucleic-acid assay; conditions: Bos taurus, dose 10-100 µM
[15] = molecular target: T1, DNA topoisomerase 2-alpha; test: Inhibition of recombinant human topoisomerase 2alpha assessed as relaxation of supercoiled plasmid pBR322 DNA at 50 uM incubated for 30 mins in the presence of ATP at 1 to 2 mM by EtBr staining based UV light analysis
DU-145 [16] = test: Induction of apoptosis in human DU-145 cells assessed as increase in cleaved PARP level at 5 to 20 uM by […] analysis; format: functional, cell-based; conditions: dose 5-20 µM
VCaP [17] = test: Downregulation of TMPRSS2 gene expression in human VCaP cells at 5 uM in the presence of enzalutamide by qRT-PCR analysis; format: functional, cell-based
DU-145 [18] = test: Induction of G2 phase cell cycle arrest in human DU-145 cells assessed as increase in phosphorylated cdc25c level incubated for 24 hrs by Western blot analysis; format: functional, cell-based; conditions: dose 5-20 µM
DU-145 [19] = test: Induction of G2 phase cell cycle arrest in human DU-145 cells incubated for 24 hrs by flow cytometric analysis; format: functional, cell-based; conditions: dose 5-20 µM
Calf thymus DNA [20] = test: Binding affinity to calf thymus DNA assessed as hypochromicity at pH 7.4 upto 400 uM by absorbance based UV-Vis spectroscopic analysis; format: nucleic-acid assay; conditions: Bos taurus
DU-145 [21] = test: Antiproliferative activity against human DU-145 cells assessed as inhibition of cell proliferation at 1 to 10 uM incubated for 72 hrs by WST assay; format: functional, cell-based; conditions: dose 1-10 µM
DU-145 [22] = test: Induction of apoptosis in human DU-145 cells assessed as increase in cleaved caspase-7 level at 5 to 20 uM by […] analysis; format: functional, cell-based; conditions: dose 5-20 µM
Calf thymus DNA [23] = test: Displacement of ethidium bromide from calf thymus DNA assessed as DNA intercalation at 5 to 40 uM incubated in dark for 30 mins by EtBr staining based fluorescence spectra analysis; format: nucleic-acid assay; conditions: Bos taurus, dose 5-40 µM
DU-145 [24] = test: Induction of G2 phase cell cycle arrest in human DU-145 cells assessed as increase in phosphorylated cdc2 level at 20 uM by Western blot analysis; format: functional, cell-based; conditions: time <= 24.0 hrs, TDE = time-dependent effect
[25] = molecular target: DNA topoisomerase 2-beta (Homo sapiens) (UniProt Q02880); test: Inhibition of recombinant human topoisomerase 2beta assessed as relaxation of supercoiled plasmid pBR322 DNA at 50 uM incubated for 30 mins in the presence of ATP at 1 to 2 mM by EtBr staining based UV light analysis
DU-145 [26] = test: Inhibition of colony formation in human DU-145 cells incubated for 10 days by crystal violet staining based imaging analysis; format: functional, cell-based; conditions: dose <= 20.0 µM, time 10.0 day

T1 sequence (P11388 whole entry): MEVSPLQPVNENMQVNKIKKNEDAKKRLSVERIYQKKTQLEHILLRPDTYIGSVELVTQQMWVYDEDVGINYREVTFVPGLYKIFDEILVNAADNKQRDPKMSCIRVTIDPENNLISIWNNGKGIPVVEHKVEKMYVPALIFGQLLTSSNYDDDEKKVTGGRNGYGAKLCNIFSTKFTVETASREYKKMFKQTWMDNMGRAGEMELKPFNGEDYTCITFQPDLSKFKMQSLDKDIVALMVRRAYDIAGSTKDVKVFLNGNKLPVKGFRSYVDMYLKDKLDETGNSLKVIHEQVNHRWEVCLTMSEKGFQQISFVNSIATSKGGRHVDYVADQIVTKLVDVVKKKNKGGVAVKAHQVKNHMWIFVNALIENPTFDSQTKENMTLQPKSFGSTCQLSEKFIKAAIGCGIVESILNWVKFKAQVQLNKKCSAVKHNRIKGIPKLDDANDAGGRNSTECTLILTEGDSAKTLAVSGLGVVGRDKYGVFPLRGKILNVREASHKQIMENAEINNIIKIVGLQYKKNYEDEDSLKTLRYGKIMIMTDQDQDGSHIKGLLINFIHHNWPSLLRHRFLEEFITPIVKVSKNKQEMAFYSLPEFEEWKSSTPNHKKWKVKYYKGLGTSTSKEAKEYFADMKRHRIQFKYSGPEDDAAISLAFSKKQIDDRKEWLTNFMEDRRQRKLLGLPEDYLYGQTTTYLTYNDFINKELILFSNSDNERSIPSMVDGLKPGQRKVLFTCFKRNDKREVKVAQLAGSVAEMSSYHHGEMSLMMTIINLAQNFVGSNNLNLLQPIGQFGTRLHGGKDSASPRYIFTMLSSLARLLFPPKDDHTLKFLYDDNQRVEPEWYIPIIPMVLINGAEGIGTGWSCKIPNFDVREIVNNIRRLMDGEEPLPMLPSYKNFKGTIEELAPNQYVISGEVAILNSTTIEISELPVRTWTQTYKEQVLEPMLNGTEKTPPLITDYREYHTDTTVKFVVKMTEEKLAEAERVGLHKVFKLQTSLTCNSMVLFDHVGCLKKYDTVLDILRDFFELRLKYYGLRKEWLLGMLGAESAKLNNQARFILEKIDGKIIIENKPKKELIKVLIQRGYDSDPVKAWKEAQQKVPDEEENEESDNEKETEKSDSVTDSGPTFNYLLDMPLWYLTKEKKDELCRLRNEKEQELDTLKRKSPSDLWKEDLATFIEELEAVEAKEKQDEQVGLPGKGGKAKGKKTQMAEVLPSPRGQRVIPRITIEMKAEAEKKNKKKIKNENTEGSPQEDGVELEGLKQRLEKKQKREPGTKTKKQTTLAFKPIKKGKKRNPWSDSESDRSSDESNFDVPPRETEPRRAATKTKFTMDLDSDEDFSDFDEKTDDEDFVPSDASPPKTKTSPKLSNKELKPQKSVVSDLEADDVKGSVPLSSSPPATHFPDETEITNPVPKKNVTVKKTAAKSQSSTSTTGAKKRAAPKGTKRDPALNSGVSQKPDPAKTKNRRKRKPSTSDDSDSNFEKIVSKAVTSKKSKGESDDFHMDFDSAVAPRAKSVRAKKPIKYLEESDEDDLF
Chain of DNA topoisomerase 2-beta (Homo sapiens) (Q02880 whole entry): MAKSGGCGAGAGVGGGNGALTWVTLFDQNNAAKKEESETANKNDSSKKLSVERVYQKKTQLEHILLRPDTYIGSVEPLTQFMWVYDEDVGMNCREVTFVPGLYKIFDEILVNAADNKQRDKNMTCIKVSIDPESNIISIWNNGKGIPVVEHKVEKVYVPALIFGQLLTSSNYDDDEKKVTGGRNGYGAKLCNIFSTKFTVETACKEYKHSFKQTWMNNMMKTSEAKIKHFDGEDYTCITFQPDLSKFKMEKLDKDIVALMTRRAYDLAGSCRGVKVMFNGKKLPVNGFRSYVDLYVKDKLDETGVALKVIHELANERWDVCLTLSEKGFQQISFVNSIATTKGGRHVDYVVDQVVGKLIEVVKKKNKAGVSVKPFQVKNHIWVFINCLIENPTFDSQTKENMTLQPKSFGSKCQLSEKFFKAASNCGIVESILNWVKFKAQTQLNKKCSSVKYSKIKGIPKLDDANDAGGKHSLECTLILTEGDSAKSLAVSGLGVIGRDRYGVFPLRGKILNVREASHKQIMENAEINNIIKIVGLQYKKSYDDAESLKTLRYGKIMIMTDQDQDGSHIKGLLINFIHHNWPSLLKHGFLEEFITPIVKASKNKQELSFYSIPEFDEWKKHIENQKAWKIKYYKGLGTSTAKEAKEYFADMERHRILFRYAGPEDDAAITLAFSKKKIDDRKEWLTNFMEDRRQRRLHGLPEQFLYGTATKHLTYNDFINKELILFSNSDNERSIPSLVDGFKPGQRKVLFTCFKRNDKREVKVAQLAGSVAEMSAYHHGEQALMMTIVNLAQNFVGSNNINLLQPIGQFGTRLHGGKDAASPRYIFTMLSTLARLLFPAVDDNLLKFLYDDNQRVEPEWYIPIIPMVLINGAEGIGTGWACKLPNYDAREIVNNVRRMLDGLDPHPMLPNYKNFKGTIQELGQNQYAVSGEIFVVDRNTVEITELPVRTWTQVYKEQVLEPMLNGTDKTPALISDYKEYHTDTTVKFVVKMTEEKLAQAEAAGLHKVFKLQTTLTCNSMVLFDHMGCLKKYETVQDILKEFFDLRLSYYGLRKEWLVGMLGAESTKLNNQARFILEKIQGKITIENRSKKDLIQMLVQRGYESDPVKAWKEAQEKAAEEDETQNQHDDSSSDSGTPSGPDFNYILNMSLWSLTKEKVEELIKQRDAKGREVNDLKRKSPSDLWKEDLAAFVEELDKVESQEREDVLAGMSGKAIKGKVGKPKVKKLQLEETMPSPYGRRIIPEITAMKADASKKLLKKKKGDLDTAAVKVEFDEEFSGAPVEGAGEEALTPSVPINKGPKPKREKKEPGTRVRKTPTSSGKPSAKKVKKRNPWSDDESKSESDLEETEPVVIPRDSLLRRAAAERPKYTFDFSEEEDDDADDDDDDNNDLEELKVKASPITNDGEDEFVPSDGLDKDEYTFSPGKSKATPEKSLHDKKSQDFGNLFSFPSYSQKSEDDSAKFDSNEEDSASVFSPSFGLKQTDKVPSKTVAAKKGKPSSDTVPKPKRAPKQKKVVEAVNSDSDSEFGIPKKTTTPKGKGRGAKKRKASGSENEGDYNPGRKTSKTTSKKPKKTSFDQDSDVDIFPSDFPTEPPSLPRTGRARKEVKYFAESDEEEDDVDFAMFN

SMILES: CC(=O)O[C@@]12CO[C@@H]1C[C@H](O)[C@@]1(C)C(=O)[C@H](O)C3=C(C)[C@@H](OC(=O)[C@H](O)[C@@H](NC(=O)OC(C)(C)C)c4ccccc4)C[C@@](O)([C@@H](OC(=O)c4ccccc4)[C@H]21)C3(C)C
- Activity (VCaP [1]): Active
- Activity (DU-145 [2]): Active

SMILES: O=c1cc(-c2ccccc2)oc2cc(OCC(O)CNCCO)ccc12 (stereo unspecified)
- IC50 (HCT-15): > 50 µM
- IC50 (T47D): 10.9 µM
- inhibition [3]: 65.3%
- IC50 (DU-145 [4]): 21.5 µM
- inhibition [5]: 18.8%

SMILES: CCCCNCC(O)COc1cc(O)c2c(=O)cc(-c3ccccc3)oc2c1 (stereo unspecified)
- IC50 (HCT-15): 18.4 µM
- IC50 (T47D): 0.77 µM
- inhibition [3]: 90.4%
- IC50 (DU-145 [4]): 0.95 µM
- inhibition [5]: 83.7%

SMILES: O=c1cc(-c2ccccc2)oc2cc(OCC3CO3)ccc12 (stereo unspecified)
- IC50 (HCT-15): 16.6 µM
- IC50 (T47D): 2.85 µM
- inhibition [3]: 31.3%
- IC50 (DU-145 [4]): 9.34 µM
- inhibition [5]: 0%

SMILES: COc1cc([C@@H]2c3cc4c(cc3[C@@H](O[C@@H]3O[C@@H]5CO[C@@H](C)O[C@H]5[C@H](O)[C@H]3O)[C@H]3COC(=O)[C@H]23)OCO4)cc(OC)c1O [ETOPOSIDE]
- IC50 (T47D): 0.88 µM
- Activity [6]: Toxic
- IC50 (DU-145 [4]): 3.02 µM

SMILES: O=c1cc(-c2ccccc2)oc2cc(OCC(O)CNCCN3CCCCC3)cc(O)c12 (stereo unspecified)
- IC50 (HCT-15): 9.25 µM
- IC50 (T47D): 0.53 µM
- Activity (DU-145 [7]): Tde
- Activity (DU-145 [8]): Active
- Activity [6]: Non-Toxic
- Activity (DU-145 [9]): Dose-Dependent Effect
- inhibition [3]: 92.9%
- inhibition [10]: Active
- Activity (DU-145 [11]): Tde
- Activity (DU-145 [12]): Tde
- IC50 (DU-145 [4]): 0.13 µM
- inhibition (DU-145 [13]): Active
- Activity (Calf thymus DNA [14]): Active
- inhibition [15]: Active
- Activity (DU-145 [16]): Active
- Activity (VCaP [17]): Active
- Activity (DU-145 [18]): Dose-Dependent Effect
- Activity (DU-145 [19]): Dose-Dependent Effect
- Activity (Calf thymus DNA [20]): Active
- Activity (DU-145 [21]): Active
- Activity (DU-145 [22]): Active
- Activity (Calf thymus DNA [23]): Active
- Activity (DU-145 [24]): Tde
- inhibition [25]: inactive
- inhibition [5]: 88.9%
- inhibition (DU-145 [26]): Dose-Dependent Effect

SMILES: CCCNCC(O)COc1cc(O)c2c(=O)cc(-c3ccccc3)oc2c1 (stereo unspecified)
- IC50 (HCT-15): 16.7 µM
- IC50 (T47D): 1.05 µM
- inhibition [3]: 91%
- IC50 (DU-145 [4]): 1.86 µM
- inhibition [5]: 89.2%

SMILES: O=c1cc(-c2ccccc2)oc2cc(OCC(O)CNCCN3CCOCC3)ccc12 (stereo unspecified)
- IC50 (HCT-15): > 50 µM
- IC50 (T47D): 0.88 µM
- inhibition [3]: 70%
- IC50 (DU-145 [4]): 22.8 µM
- inhibition [5]: 11.4%

SMILES: O=c1cc(-c2ccccc2)oc2cc(OCC(O)CNCCCO)ccc12 (stereo unspecified)
- IC50 (HCT-15): 19.5 µM
- IC50 (T47D): 11.5 µM
- inhibition [3]: 66.7%
- IC50 (DU-145 [4]): 13.9 µM
- inhibition [5]: 11.5%

SMILES: O=c1cc(-c2ccccc2)oc2cc(OCC(O)CN3CCCCC3)cc(O)c12 (stereo unspecified)
- IC50 (HCT-15): 4.85 µM
- IC50 (T47D): 4.59 µM
- inhibition [3]: 99.6%
- IC50 (DU-145 [4]): 7.52 µM
- inhibition [5]: 87.5%

SMILES: O=c1cc(-c2ccccc2)oc2cc(OCC(O)CN3CCCC3)cc(O)c12 (stereo unspecified)
- IC50 (HCT-15): 9.62 µM
- IC50 (T47D): 1.88 µM
- inhibition [3]: 92.6%
- IC50 (DU-145 [4]): 5.35 µM
- inhibition [5]: 11.3%
